Test results reported in patent US20240131032A1, “AN ACTIVITY-GUIDED MAP OF ELECTROPHILE-CYSTEINE INTERACTIONS IN PRIMARY HUMAN IMMUNE CELLS” (The Scripps Research Institute, priority 2019, published 2024).
Residues, ends and D or L forms follow the SMILES beside them. *: point of attachment. Cbz = O=C(OCc1ccccc1)*

Columns and labels:
ITK = target: T1, ITK (Homo sapiens, UniProt Q08881); test: Western blot of ITK protein content in T cells; format: cell-based; details: MG132 10 μM
T1 construct: endogenous in cells; host or cells: primary human T cells (αCD3/CD28-stimulated, naïve or expanded)
T1 sequence (Q08881 1-620): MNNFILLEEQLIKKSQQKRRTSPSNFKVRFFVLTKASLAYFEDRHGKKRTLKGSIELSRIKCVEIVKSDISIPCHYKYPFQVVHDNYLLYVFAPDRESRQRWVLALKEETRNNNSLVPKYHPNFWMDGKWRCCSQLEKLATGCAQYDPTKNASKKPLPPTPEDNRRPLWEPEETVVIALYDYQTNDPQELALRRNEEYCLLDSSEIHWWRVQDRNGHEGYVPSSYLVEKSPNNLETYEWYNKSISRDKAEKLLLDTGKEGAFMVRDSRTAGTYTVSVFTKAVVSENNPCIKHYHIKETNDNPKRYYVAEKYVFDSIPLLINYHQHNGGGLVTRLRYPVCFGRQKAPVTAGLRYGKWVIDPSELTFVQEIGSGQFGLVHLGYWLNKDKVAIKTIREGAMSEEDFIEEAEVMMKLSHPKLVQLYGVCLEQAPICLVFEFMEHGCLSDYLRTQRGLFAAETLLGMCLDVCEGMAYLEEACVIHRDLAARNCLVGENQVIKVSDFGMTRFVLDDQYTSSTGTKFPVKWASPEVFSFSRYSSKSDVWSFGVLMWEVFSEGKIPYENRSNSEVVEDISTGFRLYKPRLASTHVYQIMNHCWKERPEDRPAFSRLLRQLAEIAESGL
Experimental: T cells were treated with DMSO or compounds (5 μM each) for 8 h. […] (F) Quantitation of western blot data, where protein band intensity calculations were made using ImageJ software and represent the mean percentage of DMSO-treated control±SD; n=2-5 independent experiments per group. **p<0.01 by two-tailed unpaired t test with Welch's correction compared to EV-97 treatment. […] Data are presented as the mean percentage of DMSO-treated control±SEM; n=4 independent experiments per group. ****p<0.0001 by two-tailed unpaired t test with Welch's correction compared to DMSO-treated stim control.
Results are from one experiment representative of 2-5 independent experiments. […] Cells were treated with compounds (5 μM each) or DMSO control for 8 h. Protein band intensity calculations were made using ImageJ software and represent the mean percentage of DMSO-treated control±SD; n=2-5 independent experiments per group. **p<0.01 by two-tailed unpaired t test with Welch's correction compared to DMSO-treated stim control. […] Cells treated with DMSO or EV-96 (5 μM) for 1-8 h. Results are from a single experiment representative of 2-4 independent experiments. […] Cells were treated with compounds (5 μM each) or DMSO for 8 h. Results are from one experiment representative of 2 independent experiments.

BIRC2 = BIRC2 (Homo sapiens, UniProt Q13490); test: Western blot of BIRC2 content in human T cells; details: MG132 10 μM with EV-3, 24 h
Experimental: All treatments were for 24 h.
All treatments were for 24 h. […] Plasmids expressing FLAG epitope-tagged versions of wild-type (WT) or the indicated cysteine-to-alanine mutants of BIRC2 (C45A) and BIRC3 (C28A) were co-transfected into primary human T cells with mCherry-expressing plasmid to control for transfection efficiency for 24 h. Cells were then treated with DMSO, EV-3 (10 μM), or AT-406 (1 μM) for 24 h and analyzed by anti-FLAG western blotting. […] (G) Quantitation of western blot data, where protein band intensity calculations were made using ImageJ software and represent the mean percentage of DMSO treated control±SEM; n=3 independent experiments per group. *p<0.05; **p<0.01 by two-tailed unpaired t test with Welch's correction compared to respective DMSO treatments.
Western blot analysis was performed on freshly isolated or expanded T cells. For Western blot protein degradation analysis, primary human T cells (2×10^7 cells/treatment) were re-suspended in RPMI media at 2×10^6 cells/mL and treated with the compounds or DMSO at 37° C. in a CO2 containing incubator for 24 h (or otherwise indicated times).

BIRC3 = target: T2, BIRC3 (Homo sapiens, UniProt Q13489); test: Western blot of BIRC3 content in human T cells; format: cell-based; details: MG132 10 μM with EV-3, 24 h
T2 construct: endogenous in cells; host or cells: primary human T cells

NuRD complex = test: Expression-based proteomics (TMT-exp) of compound-treated T cells, NuRD complex; format: cell-based, human; details: MG132 10 μM co-treatment, 24 h
Experimental: FIG. 7B is a scatter plot representation of protein abundance changes caused by BPK-25 (10 μM, 24 h) in two independent replicate experiments, with decreases in NuRD complex components highlighted in red. FIG. 7C is a heatmap of top proteins with decreased abundance in BPK-25-treated T cells showing that the subset of these proteins in the NuRD complex (asterisks) were largely unaltered by other active compounds and blocked in their degradation by co-treatment with the proteasome inhibitor MG132. […] FIG. 7E is a bar graph […] showing time-dependent reductions in NuRD complex members in human T cells treated with BPK-25 (10 μM). Left, representative western blots. Right, quantification of changes in protein. […] FIG. 7G is a heat map showing the changes in cysteine reactivity for NuRD complex members in human T cells treated with BPK-25 and other active compounds.
Freshly isolated T cells (1.6×10^7 cells, 2×10^6 cells/mL in RPMI media) were treated with compound or DMSO for 24 h, pelleted (600 g, 5 min), and washed with PBS (1×10 mL). The cells were then transferred to an Eppendorf tube in additional PBS (1 mL), pelleted (600 g, 5 min), flash frozen, and kept at −80° C. until further analysis. On the first day of the whole proteome TMT protocol, the cells were thawed on ice and lysed in lysis buffer (150 μL, 1 tablet of Roche complete, mini, EDTA-free Protease Inhibitor Cocktail dissolved in 10 mL of PBS) using a probe sonicator (2×8 pulses). Protein concentration was adjusted to 2.0 mg/mL and the samples (100 μL) were transferred to new Eppendorf tubes (1.5 mL) containing urea (48 mg/tube, final urea concentration: 8 M). DTT (5 μL, 200 mM fresh stock in H2O, final DTT concentration: 10 mM) was then added to the tubes and the samples were incubated at 65° C. for 15 min. Following this incubation, iodoacetamide (5 μL, 400 mM fresh stock in H2O, final IA concentration: 20 mM) was added and the samples were incubated in the dark at 37° C. with shaking for 30 min. Ice-cold MeOH (600 μL), CHCl3 (200 μL), and H2O (500 μL) were then added, the mixture was vortexed and centrifuged (10,000 g, 10 min, 4° C.) to afford a protein disc at the interface of CHCl3 and aqueous layers. The top layer was aspirated without perturbing the disk, additional MeOH (600 μL) was added and the proteins were pelleted (10,000 g, 10 min, 4° C.) and used in the next step or stored at −80° C. overnight.
The resulting protein pellets were resuspended in EPPS buffer (160 μL, 200 mM, pH 8) using a probe sonicator (2×6 pulses). […]
The sample became clear after the overnight digestion. At this point, peptide concentration was determined using microBCA assay (Thermo Scientific) according to manufacturer's instructions. […]

ERCC3 = target: T3, ERCC3 (Homo sapiens, UniProt P19447); test: isoTOP-ABPP and TMT-ABPP cysteine engagement, ERCC3; format: binding
T3 construct: endogenous in cells; host or cells: primary human T cells
T3 sequence (P19447 1-782): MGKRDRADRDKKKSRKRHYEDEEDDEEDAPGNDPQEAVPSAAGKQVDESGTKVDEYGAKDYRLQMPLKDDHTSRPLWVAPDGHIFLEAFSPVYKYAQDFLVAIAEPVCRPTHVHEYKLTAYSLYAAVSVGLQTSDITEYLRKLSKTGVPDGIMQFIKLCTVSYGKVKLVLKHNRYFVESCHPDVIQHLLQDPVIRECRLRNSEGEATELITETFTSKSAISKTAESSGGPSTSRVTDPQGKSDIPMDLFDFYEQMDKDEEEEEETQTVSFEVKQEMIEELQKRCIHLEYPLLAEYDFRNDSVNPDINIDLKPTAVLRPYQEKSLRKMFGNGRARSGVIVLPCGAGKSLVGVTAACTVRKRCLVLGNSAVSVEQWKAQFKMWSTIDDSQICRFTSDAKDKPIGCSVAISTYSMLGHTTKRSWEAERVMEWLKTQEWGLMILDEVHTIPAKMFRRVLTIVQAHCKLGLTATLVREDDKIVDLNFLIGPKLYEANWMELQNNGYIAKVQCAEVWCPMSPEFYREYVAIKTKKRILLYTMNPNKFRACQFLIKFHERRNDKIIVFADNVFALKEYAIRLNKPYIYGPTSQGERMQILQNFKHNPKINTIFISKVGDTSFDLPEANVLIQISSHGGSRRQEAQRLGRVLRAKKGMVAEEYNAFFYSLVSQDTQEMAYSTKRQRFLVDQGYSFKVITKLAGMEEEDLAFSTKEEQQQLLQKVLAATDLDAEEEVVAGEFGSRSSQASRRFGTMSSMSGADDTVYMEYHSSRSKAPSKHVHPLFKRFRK
Experimental: Activated or expanded T cells were re-suspended in RPMI media supplemented with 10% FBS, L-glutamine (2 mM), penicillin (100 U/mL), and streptomycin (100 μg/mL) at 2×10^6 cells/mL. The compounds were added to cells as 1000×DMSO stocks and mixed well with the media by pipetting up and down after addition. The cells were kept at 37° C. in 5% CO2 containing incubators for 3 h (or otherwise specified times), then pelleted by centrifugation (524 g, 5 min, 4° C.), washed with cold PBS (10 mL) and transferred to Eppendorf tubes (1 mL PBS). The cells were pelleted again (524 g, 5 min, 4° C.), flash-frozen, and kept at −80° C. until further analysis.
Activated or expanded primary human T cells were re-suspended in RPMI (1×10^6 cells/mL) containing 10% fetal bovine serum (FBS), penicillin (100 U/mL), streptomycin ([…]), and L-glutamine (2 mM). The cells were treated with DMSO or compounds for 3 h, pelleted (524 g, 5 min), washed with PBS, and lysed by sonication (2×8 pulses). Soluble and particulate proteomic fractions were separated by ultracentrifugation (100,000 g, 45 min), and protein concentration was normalized to 1.7 mg/mL using a standard DC protein assay (Bio-Rad). The resulting proteomes were analyzed by competitive isotopic Tandem Orthogonal Proteolysis Activity-Based Protein Profiling (isoTOP-ABPP).
Samples (500 μL, 1.7 mg/mL) were treated with iodoacetamide alkyne (IA-alkyne, 5 μL of 10 mM stock in DMSO, final concentration: 100 μM) for 1 h at ambient temperature. Modified proteins were then conjugated to isotopically labeled, TEV-cleavable biotin tags (TEV-tags) using copper-catalyzed azide-alkyne cycloaddition reaction (CuAAC). Reagents for the CuAAC reaction were pre-mixed prior to their addition to the proteome samples. […]
The heavy/light isoTOP-ABPP ratios (R values) for each unique peptide (DMSO/compound treated) were quantified with in-house CIMAGE software (Weerapana et al., 2010) using default parameters (3 MS1 acquisitions per peak and signal to noise threshold set to 2.5). Site-specific engagement of cysteine residues was assessed by blockade of IA-alkyne probe labeling. […] Ratios for unique peptide sequences were calculated for each experiment; overlapping peptides with the same modified cysteine (e.g., different charge states, elution times or tryptic termini) were grouped together and the median ratio was reported as the final ratio (R). […]

NF-κB = details: cited from earlier work
primary human T cells = details: cited from earlier work

Chain of BIRC2 (Q13490 whole entry): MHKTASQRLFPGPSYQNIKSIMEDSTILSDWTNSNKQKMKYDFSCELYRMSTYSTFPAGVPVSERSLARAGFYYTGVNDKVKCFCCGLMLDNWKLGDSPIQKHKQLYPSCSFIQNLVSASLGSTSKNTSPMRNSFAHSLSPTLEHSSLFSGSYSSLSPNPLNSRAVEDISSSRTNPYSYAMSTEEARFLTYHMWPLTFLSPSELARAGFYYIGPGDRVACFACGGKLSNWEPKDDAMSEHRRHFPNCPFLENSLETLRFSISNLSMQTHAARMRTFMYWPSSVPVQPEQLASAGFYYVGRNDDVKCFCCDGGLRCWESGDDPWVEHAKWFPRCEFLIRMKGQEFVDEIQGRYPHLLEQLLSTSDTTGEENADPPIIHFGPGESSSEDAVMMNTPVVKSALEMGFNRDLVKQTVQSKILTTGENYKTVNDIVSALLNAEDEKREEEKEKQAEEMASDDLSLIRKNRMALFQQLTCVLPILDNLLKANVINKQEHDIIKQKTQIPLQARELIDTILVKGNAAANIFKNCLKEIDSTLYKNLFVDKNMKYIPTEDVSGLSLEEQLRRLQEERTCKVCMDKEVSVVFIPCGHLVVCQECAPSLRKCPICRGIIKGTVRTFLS
T2 sequence (Q13489 whole entry): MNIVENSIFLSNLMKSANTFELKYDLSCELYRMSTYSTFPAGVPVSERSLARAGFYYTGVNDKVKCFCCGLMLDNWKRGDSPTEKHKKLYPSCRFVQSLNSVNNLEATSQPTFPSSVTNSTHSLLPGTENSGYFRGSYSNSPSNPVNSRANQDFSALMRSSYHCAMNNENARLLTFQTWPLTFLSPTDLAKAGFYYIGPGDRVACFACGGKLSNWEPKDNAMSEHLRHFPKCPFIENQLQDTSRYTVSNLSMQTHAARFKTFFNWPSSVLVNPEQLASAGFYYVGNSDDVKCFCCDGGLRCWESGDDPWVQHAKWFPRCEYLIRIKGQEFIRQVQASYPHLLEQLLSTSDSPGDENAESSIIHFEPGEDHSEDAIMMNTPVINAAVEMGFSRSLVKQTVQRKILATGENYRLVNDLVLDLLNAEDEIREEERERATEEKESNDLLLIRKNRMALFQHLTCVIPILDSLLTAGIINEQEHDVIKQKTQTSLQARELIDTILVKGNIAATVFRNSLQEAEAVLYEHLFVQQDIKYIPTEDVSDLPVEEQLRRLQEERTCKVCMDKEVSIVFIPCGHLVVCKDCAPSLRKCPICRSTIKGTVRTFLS

Structure (SMILES) | effect on EV-96-mediated loss of ITK (co-treatment) (ITK) | effect on EV-3-induced loss of BIRC2 (BIRC2) | effect on EV-3-induced loss of BIRC3 (BIRC3) | effect on BPK-25-mediated reductions in NuRD complex proteins (NuRD complex) | engagement of C342 of ERCC3 (ERCC3) | NF-κB DNA binding activity (has been shown) (NF-κB) | effect on T cell activation (has been shown) (primary human T cells)
CC(C)C[C@@H](C=O)NC(=O)[C@H](CC(C)C)NC(=O)[C@H](CC(C)C)NC(=O)OCc1ccccc1 [MG132, reference compound] (Cbz-Leu-Leu-Leu-aldehyde) | blocked | blocks | blocks | blocked | – | – | –
CC(C)[C@]12O[C@H]1[C@@H]1O[C@]13[C@]1(O[C@H]1C[C@H]1C4=C(CC[C@@]13C)C(=O)OC4)[C@@H]2O [triptolide] | – | – | – | – | also targeted | without blocking | impair T cell activation
